The values that follow come from PubChem BioAssay (NCI).

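1) Cells in 96-well plates. 2) Compound, 48 h, 5 concentrations. 3) Linear interpolation between surrounding doses. 4) Unreached endpoint = highest concentration. The concentration for full growth arrest is given as TGI.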

Usually TGI stands for the concentration giving total growth inhibition.

Among the test systems are A549 NSCLC; HL-60(TB) leukemia; CCRF-CEM leukemia; IGROV1 ovarian; MDA-MB-435; 786-0 renal; CAKI-1 renal; HOP-62 NSCLC; ACHN renal; A498 renal.
Holding throughout (assay): DTP human tumour cell line panel, 48 h

As to `Cc1ccc([N+](=O)[O-])cc1NC(=O)C(=O)C1CCC2=C(Sc3ccccc3N2)C1=O` (configuration not stated), the total growth inhibition concentration (TGI) in the experiment on A549 NSCLC, in the experiment on HL-60(TB) leukemia, in the experiment with CCRF-CEM leukemia, with IGROV1 ovarian, in the experiment on MDA-MB-435 and with 786-0 renal was over 100 µM in each case. Also, the total growth inhibition concentration (TGI) in the experiment on CAKI-1 renal, in the experiment on HOP-62 NSCLC and in the experiment with ACHN renal was over 100 µM each time.
On to `Cc1cccc(C(O)c2cccnc2)c1O` (configuration not stated), for which the TGI in the experiment with A549 NSCLC, in the experiment with HL-60(TB) leukemia, in the experiment on CCRF-CEM leukemia, with IGROV1 ovarian, in the experiment on MDA-MB-435 and in the experiment on CAKI-1 renal was over 100 µM in each case. Also, the total growth inhibition concentration (TGI) in the experiment with HOP-62 NSCLC and in the experiment on ACHN renal was over 100 µM each time.
`O=C(O)CCCc1ccc2c(c1)CC1(C2)Cc2ccc(CCCC(=O)O)cc2C1`: the TGI in the experiment with A549 NSCLC, with HL-60(TB) leukemia, in the experiment on A498 renal, in the experiment on CCRF-CEM leukemia, in the experiment on IGROV1 ovarian and with MDA-MB-435 was over 100 µM in each case. In addition, the total growth inhibition concentration (TGI) in the experiment on 786-0 renal, in the experiment on HOP-62 NSCLC and with ACHN renal was over 100 µM throughout.
With `O=C1C(=Cc2ccccc2[N+](=O)[O-])N=C(c2ccccc2)N1n1c(-c2ccccc2)nc2ccccc2c1=O`, the TGI is over 100 µM in the experiment with A549 NSCLC; 78 µM in the experiment on CCRF-CEM leukemia; over 100 µM in the experiment with IGROV1 ovarian; over 100 µM in the experiment on MDA-MB-435; over 100 µM with 786-0 renal; over 100 µM in the experiment with CAKI-1 renal. Also, the TGI in the experiment with HOP-62 NSCLC and in the experiment with ACHN renal was over 100 µM throughout.
Regarding `CC(C)c1nccn1Cc1ccc(Cl)cc1Cl`, the TGI with A549 NSCLC, with A498 renal, in the experiment on IGROV1 ovarian, in the experiment on MDA-MB-435, with 786-0 renal and with CAKI-1 renal was over 100 µM each time. Besides, the TGI in the experiment with HOP-62 NSCLC and in the experiment on ACHN renal was over 100 µM each time.
For the compound `c1ccc(-c2[nH]c(-c3ccccc3)c(-c3cnccn3)c2-c2cnccn2)cc1`, the total growth inhibition concentration (TGI) in the experiment on A549 NSCLC, with HL-60(TB) leukemia, in the experiment with A498 renal, in the experiment with CCRF-CEM leukemia, in the experiment on IGROV1 ovarian and with 786-0 renal was over 100 µM each time. Also, the TGI in the experiment on CAKI-1 renal, in the experiment with HOP-62 NSCLC and with ACHN renal was over 100 µM each time.
Regarding `CC1(C)CC(=O)C(=CN2C(=O)CNC2=S)C(=O)C1`, the TGI with A549 NSCLC, in the experiment on HL-60(TB) leukemia, with CCRF-CEM leukemia, in the experiment with IGROV1 ovarian, in the experiment on MDA-MB-435 and in the experiment with 786-0 renal was over 100 µM each time. In addition, the TGI in the experiment with CAKI-1 renal, in the experiment on HOP-62 NSCLC and in the experiment on ACHN renal was over 100 µM in each case.
Turning to `COc1ccc(NS(=O)c2cccc(C)c2)cc1` (configuration not stated), the concentration for total growth inhibition (TGI) with A549 NSCLC, in the experiment on HL-60(TB) leukemia, in the experiment with CCRF-CEM leukemia, with IGROV1 ovarian, in the experiment on MDA-MB-435 and in the experiment on 786-0 renal was over 100 µM each time. The TGI with CAKI-1 renal, in the experiment on HOP-62 NSCLC and in the experiment on ACHN renal was over 100 µM throughout.
Turning to `CCOC(=O)c1cn(C)nc1N/C(C)=C\C(=O)c1ccccc1`, the TGI with A549 NSCLC, in the experiment with HL-60(TB) leukemia, with CCRF-CEM leukemia, with IGROV1 ovarian, in the experiment with MDA-MB-435 and in the experiment on 786-0 renal was over 100 µM in each case. Also, the concentration for total growth inhibition (TGI) in the experiment with CAKI-1 renal, with HOP-62 NSCLC and in the experiment on ACHN renal was over 100 µM each time.
With `C=C1C(=O)O[C@H]2C/C(C=O)=C\[C@H]3O[C@H]3/C(COC(=O)C(C)C)=C/CC12` (some centres not stated), the TGI was 37.3 µM with A549 NSCLC; 5.54 µM with HL-60(TB) leukemia; 6.63 µM with CCRF-CEM leukemia; 18.5 µM with IGROV1 ovarian; 18.9 µM in the experiment on MDA-MB-435; 10.7 µM in the experiment with 786-0 renal. In addition, the values for the TGI in the experiment on CAKI-1 renal, in the experiment with HOP-62 NSCLC and in the experiment on ACHN renal were 7.31 µM, 26.5 µM and 6.59 µM, respectively.
With `O=C1OC2C=CC1C1(CCOC1=O)C2` (configuration not stated), the TGI with A549 NSCLC, with HL-60(TB) leukemia, in the experiment with A498 renal, in the experiment on CCRF-CEM leukemia, in the experiment with IGROV1 ovarian and in the experiment on 786-0 renal was over 100 µM each time. The TGI in the experiment with CAKI-1 renal, in the experiment with HOP-62 NSCLC and in the experiment with ACHN renal was over 100 µM throughout.
Take `CC(=O)O[C@H]1C(=O)[C@@]2(C)C(C(OC(=O)c3ccccc3)[C@]3(O)CC(OC(=O)C(O)C(NC(=O)c4ccccc4)c4ccc(C)cc4)C(C)=C1C3(C)C)[C@]1(OC(C)=O)CO[C@@H]1C[C@@H]2O` (some centres not stated): the concentration for total growth inhibition (TGI) with A549 NSCLC was 21.5 µM; in the experiment with HL-60(TB) leukemia, 2.55 µM; in the experiment on A498 renal, over 25 µM; in the experiment on CCRF-CEM leukemia, 9.81 µM; in the experiment with IGROV1 ovarian, 19 µM; with 786-0 renal it was 6.68 µM. The TGI was 12.1 µM in the experiment on CAKI-1 renal, 24.1 µM in the experiment with HOP-62 NSCLC and over 25 µM in the experiment on ACHN renal.
As to `CC(=O)Nc1ccc(/C=C(\NC(=O)c2ccccc2)C(=O)NNS(=O)(=O)c2ccc(C)cc2)cc1`, the TGI in the experiment with A549 NSCLC, in the experiment on HL-60(TB) leukemia, in the experiment on CCRF-CEM leukemia, in the experiment with IGROV1 ovarian, in the experiment with CAKI-1 renal and with HOP-62 NSCLC was over 100 µM throughout. The same compound returned a TGI in the experiment on ACHN renal of over 100 µM.
In the case of `COc1ccc(N2C(=O)/C(=C/c3ccc(N(CCC#N)CCC#N)cc3)N=C2c2ccccc2)c(OC)c1`, the total growth inhibition concentration (TGI) with HL-60(TB) leukemia is over 100 µM; in the experiment on CCRF-CEM leukemia, 74.9 µM; in the experiment with IGROV1 ovarian, over 100 µM; in the experiment with MDA-MB-435, over 100 µM; in the experiment on 786-0 renal, over 100 µM; in the experiment with CAKI-1 renal, over 100 µM. Moreover, the TGI with ACHN renal was over 100 µM.
On to `COc1cccc2c1[C@]1(O)C(O)CCCC21` (some centres not stated), for which the TGI in the experiment on A549 NSCLC, in the experiment on A498 renal, in the experiment with CCRF-CEM leukemia, in the experiment with IGROV1 ovarian, in the experiment with 786-0 renal and in the experiment on CAKI-1 renal was over 100 µM in each case. Further, the total growth inhibition concentration (TGI) in the experiment on HOP-62 NSCLC and in the experiment with ACHN renal was over 100 µM each time.
